The record followed here is patent US20260224482A1, “USE OF OXIDATIVE PRECURSORS IN POULTRY FARMING” (AGA NANOTECH LTD, priority 2023, published 2026).

For series [1], the system named is Ross 308 male day-old chickens. The series is described as follows: In-water PAA in chickens: performance and safety. Type of series: in vivo. Here is the method: (§1) A total of 96 Ross 308 male day-old chickens were used during the trial duration (randomized block design with 2 rooms, 12 pens per room, 4 birds per pen and 4 pens per level of inclusion), whilst PAA treatment was administered during the last week. Six different PAA levels of inclusion were tested through in-water daily administration of SP and TAED precursors. Possible PAA effect on body weight gain (BWG), FCR (feed conversion ratio), feed/water intake and BN (bacterial number) were assessed through fitting linear mixed model (i.e. treatment as fixed effect and hierarchy of room/pen/bird when possible as random effect). Longitudinal data were used when repeated measures were taken. Total bacterial number in DNA extracted from crop, jejunum and caecal content was calculated through qPCR targeting 16S rRNA gene (V3 region). Study design and protocol were approved by SRUC Animal Welfare and Review Body (POU AE 20-2019).

Series [2] concerns total bacterial number in crop content. The experiment in a line: Total bacterial number by qPCR targeting 16S rRNA gene. It counts as in vivo, chickens. The settings on record: in-water for one week via SP and TAED precursors; P=0.02. On the procedure: as §1
(In qPCR the cycle at which signal appears reflects the starting amount.)

Molecules are shown by their SMILES. Entries after “also recorded” stand apart in the source; their conditions may differ.

Turning to `CC(=O)OO` [PAA, peracetic acid], in series [1] (PAA administered at 40 ppm, P=0.05), the “effect on BWG from D7 to D14” value is “most evident effect”. The adverse effects result in series [1] (PAA in-water administration) was “no adverse effects”. Further, the bird mortality in series [1] (in-water PAA up to 50 ppm) is 0 ^0/0. Also, the BWG during treatment result in series [1] (in-water for one week via SP and TAED precursors, P=0.05) is on record as “increased”. The “BN in the crop” value in series [2] is “reducing; also recorded: appears to be reduced by higher dosage”.
